Source: US10399949B2, “NK1 receptor antagonist” (KISSEI PHARMACEUTICAL CO., LTD., priority 2015, dated 2019)

Key:
human CYP3A4 = biological target: T1, human CYP3A4 (Homo sapiens, UniProt P08684); experiment: Inhibitory effect on CYP3A4 (Luciferin-IPA); format: in vitro ADME; conditions: test compound 10 μM, 30-minutes pre-incubation, Luciferin-IPA 3 μM
T1 construct: purchased BD Biosciences
Experimental: Inhibitory Effect on CYP3A4
The dimethyl sulfoxide (DMSO) solution of the test compound with a concentration 1000 times higher than the evaluation concentration was prepared, and a reaction solution was prepared by diluting the solution. Enzyme reaction was performed by incubating in a potassium phosphate buffer solution (pH 7.4) containing 1 μM to 10 μM test compound, 3.2 mM magnesium chloride, 0.2 pmol human CYP3A4 (BD Biosciences), 0.5 mM reduced nicotinamide adenine dinucleotide phosphate (NADPH) and 3 μM Luciferin-IPA (Promega) at 37° C. for 10 minutes. The volume of the reaction solution was 50 μL/well. The 30-minutes pre-incubation group was incubated at 37° C. for 30 minutes before adding the substrate, the Luciferin-IPA solution (12.5 μL/well). At the end of the enzyme reaction, 50 μL/well of a Luciferin detection reagent (Promega) was added to the wells, and the plate was left at room temperature for 20 minutes. Then, the emission intensities were measured with Infinite M1000 (TECAN), and the enzyme activities (%) relative to the value of the group to which the test compound was not added. As a comparative example, aprepitant, which is an NK1 receptor antagonist, was tested in the same manner.
Test was measured by the above test method, and the results are shown in Table 9 when the concentration of the test compound was 10 μM. In the table, Ex. No. means the Example number, and Pre-incubation (30 min) (%) means the enzyme activities (%) of the 30-minutes pre-incubation groups using the test compounds.

human NK1 receptor [1] = biological target: T2, human NK1 receptor (Homo sapiens, UniProt P25103); experiment: Affinity for human NK1 receptor (125I-substance P receptor binding test, membrane fraction); conditions: membrane fraction of human NK1 receptor-expressing 293T cells, room temperature 60 minutes, read-out: pIC50 (inverse logarithm of the concentration required for 50% inhibition of 125I-substance P binding) (converted)
T2 construct: expressed in transfected cells; host or cells: 293T cells (RIKEN), transient transfection with pcDNA3.1(-) plasmid
Experimental: Affinity for Human NK1 Receptor
(3) Measurement of Binding Affinity to Human NK1 Receptor
(3-1) Preparation of Membrane Fraction from Human NK1 Receptor-Expressing Cells
Human NK1 receptor-expressing cells were prepared in a 175 cm^2 culture flask (Nippon Becton Dickinson). The formation of a complex of the human NK1 receptor expression plasmid and Lipofectamine 2000 was performed by calculating the culture area ratio and increasing the scale of the method described in the above 2-4 by the ratio. The human NK1 receptor-expressing cells were collected in a buffer solution for the membrane fraction preparation (50 mM Tris (Wako Pure Chemical), 120 mM sodium chloride (Wako Pure Chemical Industries), 5 mM potassium chloride (Wako Pure Chemical Industries), 1 mM ethylenediaminetetraacetic acid (Sigma), 0.002 mg/mL chymostatin (Peptide Institute), 0.04 mg/bacitracin (Wako Pure Chemical Industries), 0.005 mg/mL phosphoramidon (Peptide Institute) and 0.5 mM phenylmethylsulfonyl fluoride (Wako Pure Chemical Industries), pH7.4) and centrifuged at 1,880 g for 10 minutes, and the cell sediment was suspended in the buffer solution for the membrane fraction preparation. After freezing and thawing the cells once, the cells were homogenized using a Dounce-type homogenizer (cooled on ice, 1000 rpm, 20 times). The homogenized cell suspension was centrifuged at 20,000 rpm for 10 minutes, and the supernatant was removed to obtain cell sediment. The cell sediment was suspended again in the buffer solution for the membrane fraction preparation and homogenized using a Dounce-type homogenizer (cooled on ice, 1000 rpm, 30 times). The cell suspension was centrifuged at 20,000 rpm for 10 minutes, and the supernatant was removed to obtain cell sediment. The same homogenization and centrifugation were repeated again, and final cell sediment was obtained. The final cell sediment was suspended in a buffer solution for the receptor binding test (50 mM Tris (Wako Pure Chemical Industries), 3 mM manganese chloride (Wako Pure Chemical Industries), 0.002 mg/mL chymostatin (Peptide Institute), 0.04 mg/bacitracin (Wako Pure Chemical Industries) and 0.02% bovine serum albumin (Sigma), pH 7.4), and the protein concentration was measured using BCA Protein Assay Kit (Pierce).
(3-2) Receptor Binding Test
The buffer solution for the receptor binding test was dispensed to the wells of a 96-well assay plate (Greiner) at 22.5 μL/well. DMSO solutions of a test compound, which were prepared at an 80-time higher concentration using 100% dimethyl sulfoxide (DMSO), were added to the wells at 2.5 μL/well (final concentrations of 1 nM to 100 nM), and the solutions were mixed. As a radiolabeled ligand, ^125I-substance P (Substance P, [^125I]Tyr^8-, PerkinElmer) was used. ^125I-substance P was diluted with the buffer solution for the receptor binding test to a concentration resulting in […] and added to the 96-well assay plate, and the solutions were mixed. The membrane fraction prepared from the human NK1 receptor-expressing cells was diluted with the buffer solution for the receptor binding test to a concentration resulting in 8 to 10 μg/well, suspended until the suspension became in such a homogenous state that the suspension could flow through a 27G injection needle smoothly and then added to the 96-well assay plate at 150 μL/well. Then, the plate was incubated at room temperature for 60 minutes while shaking the plate. […]

human NK1 receptor [2] = biological target: T2, human NK1 receptor; experiment: Inhibitory effect on human NK1 receptor (substance P-induced increase in intracellular calcium concentration); format: cell-based; conditions: HEK-293T; substance P 0.1 μM; compound 1 μM; human NK1 receptor-expressing 293T cells; vehicle = 100%; read-out: SPRR (%) (Substance P-Response Remaining, intracellular calcium concentration)
Experimental: Inhibitory Effect on Human NK1 Receptor
(1) Preparation of Human NK1 Receptor-Expressing Cells
Human NK1 receptor-expressing cells were prepared by the same methods as those described in 2-3 and 2-4 of Test Example 1.
(2) Study on Inhibitory Effect on Increase in Intracellular Calcium Concentration
The human NK1 receptor-expressing cells were washed with 300 μL/well of a washing solution (20 mM HEPES/Hanks Balanced Salt Solution (HBSS) pH7.3). A fluorescent calcium indicator (Fluo-4 Direct Calcium Assay Kit, Life Technologies, containing 0.42 mM probenecid and 0.1% bovine serum albumin, prepared according to the protocol of the product) was added to the wells at 150 μL/well, and the plate was incubated at 37° C. for 30 minutes in an incubator. Then, DMSO solutions of a test compound, which were prepared at an 80-time higher concentration using 100% dimethyl sulfoxide (DMSO), were added to the wells at 2.5 μL/well (final concentrations of 0.1, 1 and 10 μM), and the solutions were mixed. Then, the plate was further incubated at 37° C. for 30 minutes in an incubator. After 30 minutes, the intracellular calcium concentrations were measured immediately.
The intracellular calcium concentrations were each measured as a fluorescent signal using FDSS® 7000 (Hamamatsu Photonics). A substance P (Peptide Institute, Inc.) solution which was prepared at 0.4 μM or 4 μM using an assay buffer (20 mM HEPES/Hanks Balanced Salt Solution (HBSS) pH 7.3 containing 0.1% bovine serum albumin) was added automatically to each well at 50 μL/well (final concentration of 0.1 or 1 μM) 10 seconds after starting reading, and the fluorescent signal was measured up to 120 seconds.
The intracellular calcium concentration (%) of the cells to which a test compound was added was calculated by the equation below, where the fluorescent signal of the group to which the vehicle (DMSO) was added was regarded as 100%, and the fluorescent signal before the addition of substance P was regarded as 0%. Intracellular calcium concentration (%)=(Fluorescent signal of test compound addition group)/(Fluorescent signal of vehicle addition group)×100
The intracellular calcium concentration (%) calculated was regarded as the remaining agonist activity of substance P (Substance P-Response Remaining: SPRR). In the table, Ex. No. means the Example number. SPRR (%) means the value obtained when the concentration of substance P was 0.1 μM and the concentration of the compound was 1 μM.

T2 sequence (P25103 whole entry): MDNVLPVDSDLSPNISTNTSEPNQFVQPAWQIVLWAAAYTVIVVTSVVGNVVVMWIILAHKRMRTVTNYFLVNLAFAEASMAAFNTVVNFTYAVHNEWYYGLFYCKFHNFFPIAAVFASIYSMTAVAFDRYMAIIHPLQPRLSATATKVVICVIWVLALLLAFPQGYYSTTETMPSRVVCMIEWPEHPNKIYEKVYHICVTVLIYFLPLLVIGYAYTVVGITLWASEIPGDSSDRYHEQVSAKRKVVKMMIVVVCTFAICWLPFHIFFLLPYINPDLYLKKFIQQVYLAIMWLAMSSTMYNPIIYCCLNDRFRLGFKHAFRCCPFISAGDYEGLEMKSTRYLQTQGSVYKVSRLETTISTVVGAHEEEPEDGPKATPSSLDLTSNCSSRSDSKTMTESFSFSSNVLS
T1 sequence (P08684 whole entry): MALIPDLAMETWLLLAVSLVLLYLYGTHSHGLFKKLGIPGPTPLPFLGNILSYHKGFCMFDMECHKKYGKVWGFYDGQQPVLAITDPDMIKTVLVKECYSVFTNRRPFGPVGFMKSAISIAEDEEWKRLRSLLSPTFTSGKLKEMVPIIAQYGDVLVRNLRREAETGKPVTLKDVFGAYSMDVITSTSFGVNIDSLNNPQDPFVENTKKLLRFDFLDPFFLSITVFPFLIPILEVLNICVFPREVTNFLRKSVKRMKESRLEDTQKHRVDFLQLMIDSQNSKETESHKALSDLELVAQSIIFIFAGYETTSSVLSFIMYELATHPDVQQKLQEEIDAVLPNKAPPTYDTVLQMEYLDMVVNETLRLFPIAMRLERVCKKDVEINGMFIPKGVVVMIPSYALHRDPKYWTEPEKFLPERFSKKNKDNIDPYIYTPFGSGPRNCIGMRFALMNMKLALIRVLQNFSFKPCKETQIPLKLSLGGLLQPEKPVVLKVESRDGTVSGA

| SMILES | Preincubation (30 min) (%) (enzyme activities relative to group without test compound) (human CYP3A4) | IC50 (human NK1 receptor [1]) [nM] | remaining activity at 1 µM (human NK1 receptor [2]) [%] |
| --- | --- | --- | --- |
| C[C@@H](O[C@H]1OCCN(Cc2n[nH]c(=O)[nH]2)[C@H]1c1ccc(F)cc1)c1cc(C(F)(F)F)cc(C(F)(F)F)c1 [Aprepitant, aprepitant, reference compound] | 1.3 |  |  |
| Cc1cc(F)ccc1[C@H]1CN(C(=O)[C@H]2CC[C@H](CC(=O)O)CC2)CCN1C(=O)N(C)[C@H](C)c1cc(C(F)(F)F)cc(C(F)(F)F)c1 [Example 3, trans-{4-[(S)-4-{[(R)-1-(3,5-Bistrifluoromethylphenyl)ethyl]methylcarbamoyl}-3-(4-fluoro-2-methylphenyl)piperazine-1-carbonyl]cyclohexyl}acetic acid] |  | 1.41 | 50 |
| Cc1cc(F)ccc1[C@H]1CN(C(=O)N2CCC(CC(=O)O)CC2)CCN1C(=O)N(C)[C@H](C)c1cc(C(F)(F)F)cc(C(F)(F)F)c1 [Example 10, {1-[(S)-4-{[(R)-1-(3,5-Bistrifluoromethylphenyl)ethyl]methylcarbamoyl}-3-(4-fluoro-2-methylphenyl)piperazine-1-carbonyl]piperidin-4-yl}acetic acid] |  | 1.17 | 30 |
| Cc1cc(F)ccc1[C@H]1CN(C2CCC(C(=O)O)CC2)CCN1C(=O)N(C)[C@H](C)c1cc(C(F)(F)F)cc(C(F)(F)F)c1 (stereo partly drawn) [Example 6, 4-[(S)-4-{[(R)-1-(3,5-Bistrifluoromethylphenyl)ethyl]methylcarbamoyl}-3-(4-fluoro-2-methylphenyl)piperazin-1-yl]cyclohexanecarboxylic acid] |  | 1.7 | 14 |
| Cc1cc(F)ccc1[C@H]1CN(C[C@H]2CC[C@@H](C(=O)O)CC2)CCN1C(=O)N(C)[C@H](C)c1cc(C(F)(F)F)cc(C(F)(F)F)c1 [Example 7, cis-4-[(S)-4-{[(R)-1-(3,5-Bistrifluoromethylphenyl)ethyl]methylcarbamoyl}-3-(4-fluoro-2-methylphenyl)piperazin-1-ylmethyl]cyclohexanecarboxylic acid] |  | 2.04 | 6.6 |
| Cc1cc(F)ccc1[C@H]1CN(C[C@H]2CC[C@H](C(=O)O)CC2)CCN1C(=O)N(C)[C@H](C)c1cc(C(F)(F)F)cc(C(F)(F)F)c1 [Example 8, trans-4-[(S)-4-{[(R)-1-(3,5-Bistrifluoromethylphenyl)ethyl]methylcarbamoyl}-3-(4-fluoro-2-methylphenyl)piperazin-1-ylmethyl]cyclohexanecarboxylic acid] |  | 1.86 | 14 |
| Cc1cc(F)ccc1[C@H]1CN(C(=O)[C@H]2CC[C@@H](CC(=O)O)CC2)CCN1C(=O)N(C)[C@H](C)c1cc(C(F)(F)F)cc(C(F)(F)F)c1 [Example 2, cis-{4-[(S)-4-{[(R)-1-(3,5-Bistrifluoromethylphenyl)ethyl]methylcarbamoyl}-3-(4-fluoro-2-methylphenyl)piperazine-1-carbonyl]cyclohexyl}acetic acid] |  | 1.38 | 25 |
| Cc1cc(F)ccc1[C@H]1CN(C2CCC(CC(=O)O)CC2)CC[C@@H]1C(=O)N(C)[C@@H](C)c1cc(C(F)(F)F)cc(C(F)(F)F)c1 (stereo partly drawn) [Example 12, {4-[(3 S,4S)-4-{[(S)-1-(3,5-Bistrifluoromethylphenyl)ethyl]methylcarbamoyl}-3-(4-fluoro-2-methylphenyl)piperidin-1-yl]cyclohexyl}lacetic acid] |  | 0.282 | 4.9 |
| Cc1cc(F)ccc1[C@H]1CN(C2CCC(CC(=O)O)CC2)CCN1C(=O)N(C)[C@H](C)c1cc(C(F)(F)F)cc(C(F)(F)F)c1 (stereo partly drawn) [Example 1, {4-[(S)-4-{[(R)-1-(3,5-Bistrifluoromethylphenyl)ethyl]methylcarbamoyl}-3-(4-fluoro-2-methylphenyl)piperazin-1-yl]cyclohexyl}acetic acid] |  | 2.24 | 15 |
| Cc1cc(F)ccc1[C@H]1CN(CC23CC(C(=O)O)(C2)C3)CCN1C(=O)N(C)[C@H](C)c1cc(C(F)(F)F)cc(C(F)(F)F)c1 [Example 11, 3-[(S)-4-{[(R)-1-(3,5-Bistrifluoromethylphenyl)ethyl]methylcarbamoyl}-3-(4-fluoro-2-methylphenyl)piperazin-1-ylmethyl]bicyclo[1.1.1]pentane-1-carboxylic acid] |  | 1.91 | 24 |
| Cc1cc(F)ccc1[C@H]1CN(Cc2ccc(CC(=O)O)cc2)CCN1C(=O)N(C)[C@H](C)c1cc(C(F)(F)F)cc(C(F)(F)F)c1 [Example 9, {4-[(S)-4-{[(R)-1-(3,5-Bistrifluoromethylphenyl)ethyl]methylcarbamoyl}-3-(4-fluoro-2-methylphenyl)piperazin-1-ylmethyl]phenyl}acetic acid] |  | 1.55 | 38 |
